{"source": "patent US20090203709A1", "about": "“Pharmaceutical Dosage Form For Oral Administration Of Tyrosine Kinase Inhibitor” (ABBOTT LABORATORIES, priority 2008, published 2009)", "assay": "Safety in study M05-756 (AML/MDS; adverse events, DLTs)", "key": {"[1]": {"conditions": "all cycles, N = 10, highest grade per subject"}}, "method": "Food was not allowed 2 h before or after dosing.\nThe following safety evaluations were performed during the studies: adverse event monitoring, vital signs, ECGs, physical examination and laboratory tests assessments."}
{"smiles": "Cc1ccc(F)c(NC(=O)Nc2ccc(-c3cccc4[nH]nc(N)c34)cc2)c1", "note": "[ABT-869, N-[4-(3-amino-1H-indazol-4-yl)phenyl]-N′-(2-fluoro-5-methylphenyl)urea]", "values": [{"measurement": "Dose limiting fatigue", "setting": "20 mg/body cohort", "value": 3, "unit": "patients"}, {"measurement": "Alopecia, Overall", "setting": "all cycles, N = 10", "value": "2 (20.0) n (%)"}, {"measurement": "Anorexia, Overall", "setting": "all cycles, N = 10", "value": "2 (20.0) n (%)"}, {"measurement": "Asthenia, Overall", "setting": "all cycles, N = 10", "value": "3 (30.0) n (%)"}, {"measurement": "Constipation, Overall", "setting": "all cycles, N = 10", "value": "2 (20.0) n (%)"}, {"measurement": "Cough, Overall", "setting": "all cycles, N = 10", "value": "3 (30.0) n (%)"}, {"measurement": "Diarrhoea, Overall", "setting": "all cycles, N = 10", "value": "4 (40.0) n (%)"}, {"measurement": "Fatigue, Overall", "setting": "all cycles, N = 10", "value": "2 (20.0) n (%)"}, {"measurement": "Febrile Neutropenia, Overall", "setting": "all cycles, N = 10", "value": "3 (30.0) n (%)"}, {"measurement": "Haematuria, Overall", "setting": "all cycles, N = 10", "value": "2 (20.0) n (%)"}, {"measurement": "Hypocalcaemia, Overall", "setting": "all cycles, N = 10", "value": "2 (20.0) n (%)"}, {"measurement": "Hypokalaemia, Overall", "setting": "all cycles, N = 10", "value": "2 (20.0) n (%)"}, {"measurement": "Myalgia, Overall", "setting": "all cycles, N = 10", "value": "2 (20.0) n (%)"}, {"measurement": "Nausea, Overall", "setting": "all cycles, N = 10", "value": "2 (20.0) n (%)"}, {"measurement": "Palmar-plantar erythrodysaesthesia syndrome, Overall", "setting": "all cycles, N = 10", "value": "2 (20.0) n (%)"}, {"measurement": "Pyrexia, Overall", "setting": "all cycles, N = 10", "value": "3 (30.0) n (%)"}, {"measurement": "Alopecia, Grade 1", "setting": "[1]", "value": 0, "unit": "n"}, {"measurement": "Alopecia, Grade 2", "setting": "[1]", "value": 2, "unit": "n"}, {"measurement": "Alopecia, Grade 3/4", "setting": "[1]", "value": 0, "unit": "n"}, {"measurement": "Anorexia, Grade 1", "setting": "[1]", "value": 2, "unit": "n"}, {"measurement": "Anorexia, Grade 2", "setting": "[1]", "value": 0, "unit": "n"}, {"measurement": "Anorexia, Grade 3/4", "setting": "[1]", "value": 0, "unit": "n"}, {"measurement": "Asthenia, Grade 1", "setting": "[1]", "value": 1, "unit": "n"}, {"measurement": "Asthenia, Grade 2", "setting": "[1]", "value": 0, "unit": "n"}, {"measurement": "Asthenia, Grade 3/4", "setting": "[1]", "value": 2, "unit": "n"}, {"measurement": "Constipation, Grade 1", "setting": "[1]", "value": 2, "unit": "n"}, {"measurement": "Constipation, Grade 2", "setting": "[1]", "value": 0, "unit": "n"}, {"measurement": "Constipation, Grade 3/4", "setting": "[1]", "value": 0, "unit": "n"}, {"measurement": "Cough, Grade 1", "setting": "[1]", "value": 3, "unit": "n"}, {"measurement": "Cough, Grade 2", "setting": "[1]", "value": 0, "unit": "n"}, {"measurement": "Cough, Grade 3/4", "setting": "[1]", "value": 0, "unit": "n"}, {"measurement": "Diarrhoea, Grade 1", "setting": "[1]", "value": 2, "unit": "n"}, {"measurement": "Diarrhoea, Grade 2", "setting": "[1]", "value": 1, "unit": "n"}, {"measurement": "Diarrhoea, Grade 3/4", "setting": "[1]", "value": 1, "unit": "n"}, {"measurement": "Fatigue, Grade 1", "setting": "[1]", "value": 1, "unit": "n"}, {"measurement": "Fatigue, Grade 2", "setting": "[1]", "value": 1, "unit": "n"}, {"measurement": "Fatigue, Grade 3/4", "setting": "[1]", "value": 0, "unit": "n"}, {"measurement": "Febrile Neutropenia, Grade 1", "setting": "[1]", "value": 0, "unit": "n"}, {"measurement": "Febrile Neutropenia, Grade 2", "setting": "[1]", "value": 0, "unit": "n"}, {"measurement": "Febrile Neutropenia, Grade 3/4", "setting": "[1]", "value": 3, "unit": "n"}, {"measurement": "Haematuria, Grade 1", "setting": "[1]", "value": 1, "unit": "n"}, {"measurement": "Haematuria, Grade 2", "setting": "[1]", "value": 1, "unit": "n"}, {"measurement": "Haematuria, Grade 3/4", "setting": "[1]", "value": 0, "unit": "n"}, {"measurement": "Hypocalcaemia, Grade 1", "setting": "[1]", "value": 2, "unit": "n"}, {"measurement": "Hypocalcaemia, Grade 2", "setting": "[1]", "value": 0, "unit": "n"}, {"measurement": "Hypocalcaemia, Grade 3/4", "setting": "[1]", "value": 0, "unit": "n"}, {"measurement": "Hypokalaemia, Grade 1", "setting": "[1]", "value": 2, "unit": "n"}, {"measurement": "Hypokalaemia, Grade 2", "setting": "[1]", "value": 0, "unit": "n"}, {"measurement": "Hypokalaemia, Grade 3/4", "setting": "[1]", "value": 0, "unit": "n"}, {"measurement": "Myalgia, Grade 1", "setting": "[1]", "value": 1, "unit": "n"}, {"measurement": "Myalgia, Grade 2", "setting": "[1]", "value": 0, "unit": "n"}, {"measurement": "Myalgia, Grade 3/4", "setting": "[1]", "value": 1, "unit": "n"}, {"measurement": "Nausea, Grade 1", "setting": "[1]", "value": 2, "unit": "n"}, {"measurement": "Nausea, Grade 2", "setting": "[1]", "value": 0, "unit": "n"}, {"measurement": "Nausea, Grade 3/4", "setting": "[1]", "value": 0, "unit": "n"}, {"measurement": "Palmar-plantar erythrodysaesthesia syndrome, Grade 1", "setting": "[1]", "value": 2, "unit": "n"}, {"measurement": "Palmar-plantar erythrodysaesthesia syndrome, Grade 2", "setting": "[1]", "value": 0, "unit": "n"}, {"measurement": "Palmar-plantar erythrodysaesthesia syndrome, Grade 3/4", "setting": "[1]", "value": 0, "unit": "n"}, {"measurement": "Pyrexia, Grade 1", "setting": "[1]", "value": 1, "unit": "n"}, {"measurement": "Pyrexia, Grade 2", "setting": "[1]", "value": 1, "unit": "n"}, {"measurement": "Pyrexia, Grade 3/4", "setting": "[1]", "value": 1, "unit": "n"}, {"measurement": "dose-limiting toxicities", "setting": "study M05-756", "value": "fatigue is dose-limiting"}, {"measurement": "reversibility of toxicities", "setting": "study M05-756", "value": "treatable, or reversible with ABT-869 interruption"}]}
